# Measurements published in patent US20070111258A1, “Compositions and methods for modulating the acute phase response” (priority 2005, published 2007).
# B1: interleukin-6 (protein, UniProt P08505 25-211, looked up)
# Interleukin-6: FPTSQVRRGDFTEDTTPNRPVYTTSQVGGLITHVLWEIVEMRKELCNGNSDCMNNDDALAENNLKLPEIQRNDGCYQTGYNQEICLLKISSGLLEYHSYLEYMKNNLKDNKKDKARVLQRDTETLIHIFNQEVKDLHKIVLPTPISNALLTDKLESQKEWLRTKTIQFILKSLEEFLKVTLRSTRQT
# notes: pro-inflammatory cytokine; recombinant murine IL6 in vivo
# B2: IL1β: pro-inflammatory cytokine; recombinant murine IL1β in vivo (protein, UniProt P10749 118-269, looked up)
# Interleukin-1 beta: VPIRQLHYRLRDEQQKSLVLSDPYELKALHLNGQNINQQVIFSMSFVQGEPSNDKIPVALGLKGKNLYLSCVMKDGTPTLQLESVDPKQYPKKKMEKRFVFNKIEVKSKVEFESAEFPNWYISTSQAEHKPVFLGNNSGQDIIDFTMESVSS
# Columns and labels:
# human CREBH = assay: Cleavage of flag-tagged human CREBH stably expressed in H2.35 cells (Western blot, cell fractionation); type: cell-based; conditions: H2.35 cells stably expressing flag-tagged human CREBH; 8 hours; BFA 0.5 μg/ml, TNFα 20 ng/ml, IL6 40 ng/ml, DTT 5 mM, Tg 0.5 μM, Tm 5 μg/ml
# Method: FIG. 3 depicts the effects of ER stress on CREBH: proteolytic cleavage of CREBH to release its N-terminal fragment that translocates into the nucleus. (A) Illustration of transmembrane domains and lumenal domains of SREBP, ATF6, Luman and CREBH in human (hs), mouse (mm). The conserved residues for S1P and S2P recognition are highlighted. (B) Cleavage of CREBH in H2.35 cells under different stimuli. H2.35 cells stably expressing flag-tagged human CREBH were treated with 0.5 μg/ml BFA, 20 ng/ml TNFα, 40 ng/ml IL6, 5 mM DTT, 0.5 μM Tg or 5 μg/ml Tm for 8 hours. Untransfected H2.35 cells (lane 1) and the H2.35 cells that stably express human CREBH (lane 2) were cultured under normal conditions as control. Total cell lysates were collected for Western blot analysis by using an anti-flag monoclonal antibody (upper panel). Levels of α-actin were determined for control of protein loading (lower panel). (C) Cleavage of CREBH in H2.35 cells under Tm treatment for various time periods. The H2.35 cells stably expressing flag-tagged CREBH were cultured in the absence or presence of Tm (5 μg/ml) for 4, 8 or 12 hours. Membrane fractions were isolated from the total cell lysates, and were subjected to Western blot analysis of CREBH and calnexin, respectively. Nuclear fractions were isolated from the same total cell lysates and subjected to Western blot analysis of CREBH and PARP, respectively. (D) Translocation of CREBH in COS7 cells. COS7 cells were co-transfected with a construct expressing flag-tagged full-length CREBH (CREBH-F) or CREBH-ΔC and a construct expressing KDEL-RFP, and were then cultured in the absence or presence of Tm (5 μg/ml) for 4 hours. Cells were then stained with FITC-conjugated anti-flag antibody and subjected to Zeiss Confocal Microscope analysis. Magnification: 40×10.
# For analysis of expression and cleavage of CREBH protein, total cell lysates were prepared from H2.35 cells or COS7 cells using Nonidet P-40 lysis buffer (1% NP-40, 50 mM Tris-HCl at pH 7.5, 150 mM NaCl, 0.05% SDS) supplemented with protease inhibitors (Complete Mini from Roche Applied Science), 0.1 mM sodium vanadate, and 1 mM sodium fluoride. Membrane and nuclear fractions of cell lysates were isolated as previously described (Dignam et al., 1983). The total cell lysate, membrane and nuclear fractions were subjected to SDS-PAGE and then analyzed by Western blot using anti-flag monoclonal antibody or other antibodies. Immunoprecipitation and Western blot analyses of ATF6 and CREBH interaction in 293T cells expressing flag-tagged CREBH protein were performed by using anti-human ATF6 and anti-flag antibodies. Total cell lysates from 293T cells transfected with control vector or pFlag-CREBH-ΔC were immunoprecipitated with anti-human ATF6 polyclonal antibody and anti-flag antibody, respectively. The immunoprecipitated cell lysates were then subjected to Western blotting by using anti-flag antibody to detect CREBH protein and using anti-human ATF6 antibody to detect ATF6 protein, respectively. The same total cell lysates were subjected to Western blotting by using anti-flag antibody to detect expression of CREBH protein in the transfected cells. For detecting endogenous CREBH protein in the liver extracts, an anti-mouse CREBH polyclonal antibody was raised in rabbits against a purified mouse CREBH peptide composed of amino acids 92-109 [[…]]. The rabbit anti-human ATF6 polyclonal antibody was generated in the inventor's laboratory. The anti-mouse calnexin monoclonal antibody and the anti-mouse monoclonal PRAP antibody were purchased from Stressgen Biotechnologies (Victoria, BC, Canada) and BD Bioscience (Mountain View, Calif., USA), respectively.
# CREBH mRNA = CREBH mRNA induction in H2.35 cells (Northern blot, quantitative real-time RT-PCR); type: cell-based; conditions: murine H2.35 hepatoma cells; IL6 40 ng/ml, TNFα 20 ng/ml, IL1β 40 ng/ml, DTT 5 mM, Tg 0.5 μM, Tm 5 μg/ml, BFA 0.5 μg/ml; 4, 8, 12 hours
# Method: FIG. 1 depicts the induction of expression of CREBH during fetal liver development and by proinflammatory cytokines. (A) Structural comparison of CREBH and ATF6. The domains are indicated by residue numbers of amino acids. (B) Northern blot analysis of CREBH mRNA levels in various tissues from mice. Tissue samples were collected from 3-month-old wild-type C57BL/6J mice. Levels of β-actin mRNA were determined for control of sample loading. (C) Expression profile of CREBH mRNA in fetal livers during embryogenesis. (D) Induction of CREBH mRNA in murine hepatoma cell line H2.35 under IL6 (40 ng/ml) stimulation for various time points. For panels A-D, experiments were performed at least 3 times and representative data are shown.
# FIG. 2 depicts the analysis of gene expression in H2.35 cells. H2.35 cells were treated with 20 ng/ml TNFα, 40 ng/ml IL1β, 20 μg.ml LPS, 5 mM DTT, 0.5 μM Tg, 5 μg/ml Tm or 0.5 μg/ml BFA for 4, 8 and 12 hours, respectively. Levels of CREBH mRNA (A) and spliced XBP1 mRNA (B) in H2.35 were determined by quantitative real-time RT-PCR. Fold changes of mRNA induction were determined after normalization of the mRNA levels to internal control 18S ribosomal RNA levels. […] However, expression from the SAP or CRP promoter-reporter plasmids is sufficiently measurable in H2.35 cells so that it is possible to investigate transcriptional activation effects of CREBH on the CRP and SAP promoters by reporter assays in H2.35 cells. These reporter experiments are not possible in non-hepatocyte cell lines. However, for non-hepatocyte cell lines, such as wild-type and mutant CHO cells, CREBH cleavage and activation could be measured using the UPRE reporter assay. (C) Summary of stimuli that induce CREBH mRNA, NF-κB activation and the UPR in H2.35 and HepG2 cells. (D) Expression of BiP and GRP94 in H2.35 cells over-expressing CREBH or ATF6. H2.35 cells in a 35 mm collagen-coated plate were transfected with 1.5 μg empty DNA vector, vector expressing the nuclear form of CREBH (CREBH-N) or vector expressing nuclear form of ATF6 (ATF6 p50), respectively. Expression levels of BiP and GRP 94 were determined by Western blot analysis by using a murine and —BiP monoclonal antibody and a murine anti-GRP94 monoclonal antibody, respectively. The membranes were re-blotted with an anti-α-actin antibody for control of sample loading.
# Northern blot analysis was performed according to standard procedures (Sambrook et al., 1989). ^32P-labeled probes were prepared using a random prime labeling system (Amersham Pharmacia, Piscataway, N.J., USA). A 210 bp mouse CREBH cDNA fragment, a 250 bp mouse CRP cDNA fragment and a 260 bp mouse SAP cDNA fragment were amplified from murine total RNA by reverse transcription-PCR system (Roche Applied Science), respectively, and were used as probes for Northern blot analyses. Total RNA (15 μg) per sample purified from cultured cells or murine tissues was used for Northern blot analysis. Quantitative real-time RT-PCR was performed as previously described (Back et al., 2005). Briefly, total cellular RNA prepared was reverse-transcribed to cDNA using a random primer (Applied Biosystems). The reaction mixture, containing SYBR Green PCR Master Mix (Applied Biosystems), was run in a 7900HT Fast Real-Time PCR System (Applied Biosystems). Real-time PCR primer sequences for quantification of murine XBP1 mRNA splicing are: the forward primer 5′-[…]-3′, and the reverse primer 5′-[…]-3′. Other primer sequences were designed by Primer Express (Applied Biosystems).
# [1] = test system: BiP, CHOP, EDEM, spliced XBP1, SAP and CRP mRNAs; assay: UPR and APR mRNA induction in mouse liver after injection (quantitative real-time RT-PCR); type: in vivo; conditions: 24 hours after injection; for fold increases in UPR mRNA levels relative to those observed after injection of Tm: liver; for levels of spliced XBP1 mRNA and mRNA encoding EDEM in the liver: wild-type mice
# Method: Levels of spliced XBP1 mRNA were determined by quantitative real-time RT-PCR (lower panel). […] (B) Induction of CRP, SAP, BiP and spliced XBP1 mRNAs in mice injected with Tm. C57BU6J mice at 3-months of age were injected intraperitoneally with Tm (2 mg/kg body weight) in 150 mM dextrose solution. Mice were injected with the same volume of dextrose solution as a control. Liver tissues were collected from mice at 24 hours after injection for RNA isolation. (C-E) Induction of the BiP, CHOP, EDEM, spliced XBP1, SAP and CRP mRNAs in mice challenged with IL6, IL1β, LPS or Tm. Wild-type C57B1/6J mice at 3-months of age were intraperitoneally injected with recombinant murine IL6 (25 ng/gram body weight), recombinant murine IL1β (25 ng/gram body weight), LPS (3 μg/gram body weight) or Tm (2 μg/gram body weight). Mice were injected with the same volume of NaCL (for panels C and D) or dextrose (for panels E) solution as controls. At 24 hours after injection, liver samples were collected for isolating total RNA. Quantitative real-time RT-PCR was used to determine the mRNA levels. Fold changes of mRNA induction were determined after normalization of the mRNA levels to internal control 18S ribosomal RNA levels. Each bar denotes the mean±S.D., n=5 mice per injection.
# Quantitative real-time RT-PCR was performed as previously described (Back et al., 2005). Briefly, total cellular RNA prepared was reverse-transcribed to cDNA using a random primer (Applied Biosystems). The reaction mixture, containing SYBR Green PCR Master Mix (Applied Biosystems), was run in a 7900HT Fast Real-Time PCR System (Applied Biosystems). Real-time PCR primer sequences for quantification of murine XBP1 mRNA splicing are: the forward primer 5′-[sequence]-3′, and the reverse primer 5′-[sequence]-3′. Other primer sequences were designed by Primer Express (Applied Biosystems).
Molecule,cleavage of CREBH to release a 50 kD N-terminal fragment (human CREBH),induction of CREBH mRNA (CREBH mRNA),fold increases in UPR mRNA levels relative to those observed after injection of Tm [1],levels of spliced XBP1 mRNA and mRNA encoding EDEM in the liver [1]
"C/C=C(/C)C(=O)O[C@H]1C(C)=C2[C@H]([C@@H]1OC(=O)CCCCCCC)[C@@](C)(OC(C)=O)C[C@H](OC(=O)CCC)[C@@]1(O)[C@H]2OC(=O)[C@@]1(C)O [Tg, thapsigargin]",significantly induced cleavage of CREBH,significantly induced,–,–
tumor necrosis factor α [TNFα],neither of them significantly induced CREBH cleavage,induced in a time-dependent manner,–,–
"O[C@H](CS)[C@H](O)CS (racemic) [DTT, dithiothreitol]",significantly induced cleavage of CREBH,significantly induced,–,–
"C[C@H]1CCC/C=C/[C@@H]2C[C@H](O)C[C@H]2[C@H](O)/C=C/C(=O)O1 [BFA, Brefeldin A]",induced cleavage of CREBH,significantly induced,–,–
B1,neither of them significantly induced CREBH cleavage,induced in a time-dependent manner,approximately 50 % of those observed after injection of Tm,also increased
B2,–,induced in a time-dependent manner,approximately 50 % of those observed after injection of Tm,also increased
